PMC10414684, “Novel integrated computational AMP discovery approaches highlight diversity in the helminth AMP repertoire” (PLOS Pathogens, 2023)
Values after ≈ are worked out from the molar mass of the structure shown. Where a name gives a salt, the structure may show the parent alone. Read-outs that look alike come from different tables or passages of the source. No end group written: not given here.

How the values were obtained:
[1] = tested on: E. coli K12; experiment: Minimum inhibitory concentration, microbroth dilution; type: cell-based, Escherichia coli; conditions: 5x10^5 CFU/ml, 37°C, 18–24 h, visible growth; for MIC E. coli K12 (-): peptides 512–0.25μg/ml, >70% purity (Cecropin P1 >95%), Ciprofloxacin 32–0.02μg/ml; for MIC: read-out: MIC E. coli K12 (-), μM in brackets
Procedure: (§1) Prioritised helminth AMP-LPs were synthesised at >70% purity (Genosphere Biotechnologies). […] Peptides and control antibiotics [Ciprofloxacin (for gram-negative species; Sigma-Aldrich) and Vancomycin hydrochloride (for gram-positive species; Sigma-Aldrich)] were dissolved in sterile ultrapure water at a concentration of 5.12mg/ml. Minimum inhibitory concentrations (MICs) were determined for gram-positive and gram-negative bacterial isolates (see Table 3 for species) using microbroth dilution assays as described previously. Briefly, a single colony from each bacterial species was inoculated in cation-adjusted Mueller Hinton Broth (MHB) and grown for 18–24 hours at 37°C with shaking (225rpm) before being adjusted to a final bacterial density of 5x10^5 colony forming units (CFU) per ml. Peptides and Vancomycin hydrochloride were diluted using sterile MHB in sterile U-bottom 96 well polypropylene microplates (Greiner Bio One, UK) to give a concentration gradient ranging from 512–0.25μg/ml. Ciprofloxacin was further diluted in sterile MHB to give a concentration gradient ranging from 32–0.02μg/ml. Microplates were incubated at 37°C for 18–24 hours. Plates were assessed for visible growth and the MIC was defined as the lowest concentration of peptide or antibiotic that inhibited visible growth of a bacterial culture after an 18–24-hour incubation. MIC data were validated by positive and negative control antibiotic MIC data for each bacterial isolate.

[2] = tested on: A. baumannii DSM 30007; experiment: as above; type: cell-based, Acinetobacter baumannii; conditions: 5x10^5 CFU/ml, 37°C, 18–24 h, visible growth; for MIC A. baumannii DSM 30007 (-): peptides 512–0.25μg/ml, >70% purity (Cecropin P1 >95%), Ciprofloxacin 32–0.02μg/ml; for MIC: read-out: MIC A. baumannii DSM 30007 (-), μM in brackets
Procedure: as §1

[3] = tested on: P. aeruginosa PA01; experiment: as above; type: cell-based, Pseudomonas aeruginosa; conditions: 5x10^5 CFU/ml, 37°C, 18–24 h, visible growth; for MIC P. aeruginosa PA01 (-): peptides 512–0.25μg/ml, >70% purity (Cecropin P1 >95%), Ciprofloxacin 32–0.02μg/ml; for MIC: read-out: MIC P. aeruginosa PA01 (-), μM in brackets
Procedure: as §1

[4] = tested on: S. aureus EMRSA-15; experiment: microbe, parasite or virus in culture; type: cell-based, Staphylococcus aureus
Procedure: as §1

[5] = tested on: E. faecalis JH2-2; experiment: microbe, parasite or virus in culture; type: cell-based, Enterococcus faecalis
Procedure: as §1

[6] = tested on: S. aureus RN4220; experiment: microbe, parasite or virus in culture; type: cell-based, Staphylococcus aureus; conditions: for MIC S. aureus RN4220 (+): peptides and Vancomycin hydrochloride 512–0.25μg/ml, peptides >70% purity (Cecropin P1 >95%)
Procedure: as §1

[7] = Methicillin-resistant, microbroth dilution, cation-adjusted MHB, 5x10^5 CFU/ml, 37°C, 18–24 h, visible growth, peptides and Vancomycin hydrochloride 512–0.25μg/ml, peptides >70% purity (Cecropin P1 >95%)
[8] = microbroth dilution, cation-adjusted MHB, 5x10^5 CFU/ml, 37°C, 18–24 h, visible growth, peptides and Vancomycin hydrochloride 512–0.25μg/ml, peptides >70% purity (Cecropin P1 >95%)
[9] = Methicillin-Sensitive, microbroth dilution, cation-adjusted MHB, 5x10^5 CFU/ml, 37°C, 18–24 h, visible growth

In the case of “DGCPKRVAIAVLKAPYKIFKKEANKGLFKLADKIHGVRY [fAMP-LP-123, flatworm AMP-like peptide selected for synthesis and MIC screening]”, the “MIC E. coli K12 (-)” value ([1]; cation-adjusted MHB) is reported as “/ (/ indicates that there was no activity at the highest concentration of peptide used (512μg/ml))”, the “MIC A. baumannii DSM 30007 (-)” value ([2]; cation-adjusted MHB) is reported as “/ (/ indicates that there was no activity at the highest concentration of peptide used (512μg/ml))” and the “MIC P. aeruginosa PA01 (-)” value ([3]; cation-adjusted MHB) is reported as “/ (/ indicates that there was no activity at the highest concentration of peptide used (512μg/ml))”. The “MIC S. aureus EMRSA-15 (+)” value [4, 7] was “/ (/ indicates that there was no activity at the highest concentration of peptide used (512μg/ml))” and the “MIC E. faecalis JH2-2 (+)” value [5, 8] was “/ (/ indicates that there was no activity at the highest concentration of peptide used (512μg/ml))”.
In the case of “GAGRWRANRRANRRRFARRLRRNQRRAAQKRRAHARRHQRNLRRAARKIRRIQRR[nh2] (GAGRWRANRRANRRRFARRLRRNQRRAAQKRRAHARRHQRNLRRAARKIRRIQRR-NH2) [nAMP-LP-298, arginine-rich nematode AMP-like peptide conserved across four Clade 9/V gastrointestinal parasites]”, the “MIC E. coli K12 (-)” value ([1]; cation-adjusted MHB) is reported as 64 µg/mL, the MIC ([1]; cation-adjusted MHB) is reported as 9 µM and the “MIC A. baumannii DSM 30007 (-)” value ([2]; cation-adjusted MHB) is reported as 32 µg/mL. For the same molecule, the MIC ([2]; cation-adjusted MHB) was 5 µM, the “MIC P. aeruginosa PA01 (-)” value ([3]; cation-adjusted MHB) was 64 µg/mL and the MIC ([3]; cation-adjusted MHB) was 9 µM. For the same molecule, the “MIC S. aureus EMRSA-15 (+), μM in brackets” value ([4]; Methicillin-resistant, microbroth dilution, cation-adjusted MHB, 5x10^5 CFU/ml, 37°C, 18–24 h, visible growth) was 9 µM, the “MIC S. aureus EMRSA-15 (+)” value [4, 7] was 64 µg/mL and the “MIC S. aureus RN4220 (+), μM in brackets” value [6, 9] was 5 µM. For the same molecule, the “MIC S. aureus RN4220 (+)” value [6, 9] was 32 µg/mL, the “MIC E. faecalis JH2-2 (+), μM in brackets” value ([5]; microbroth dilution, cation-adjusted MHB, 5x10^5 CFU/ml, 37°C, 18–24 h, visible growth) was 9 µM and the “MIC E. faecalis JH2-2 (+)” value [5, 8] was 64 µg/mL.
With “GKKDEGKEVVDDKAGDKKGMKKSFRRQQGWIWIYW [nAMP-LP-1231, nematode AMP-like peptide selected for synthesis and MIC screening]” the “MIC E. coli K12 (-)” value ([1]; cation-adjusted MHB) was “/ (/ indicates that there was no activity at the highest concentration of peptide used (512μg/ml))”, the “MIC A. baumannii DSM 30007 (-)” value ([2]; cation-adjusted MHB) was “/ (/ indicates that there was no activity at the highest concentration of peptide used (512μg/ml))” and the “MIC P. aeruginosa PA01 (-)” value ([3]; cation-adjusted MHB) was “/ (/ indicates that there was no activity at the highest concentration of peptide used (512μg/ml))”. The “MIC S. aureus EMRSA-15 (+)” value [4, 7] was “/ (/ indicates that there was no activity at the highest concentration of peptide used (512μg/ml))”, the “MIC S. aureus RN4220 (+)” value [6, 9] was “/ (/ indicates that there was no activity at the highest concentration of peptide used (512μg/ml))” and the “MIC E. faecalis JH2-2 (+)” value [5, 8] was “/ (/ indicates that there was no activity at the highest concentration of peptide used (512μg/ml))”.
`O=C(O)c1cn(C2CC2)c2cc(N3CCNCC3)c(F)cc2c1=O` [Ciprofloxacin, reference compound] was tested, and the MIC ([1]; Escherichia coli, K12, cation-adjusted MHB) was 0.2 µM (≈ 0.0663 µg/mL), the “MIC E. coli K12 (-)” value ([1]; cation-adjusted MHB) was 0.0625 µg/mL (≈ 0.189 µM) and the MIC ([2]; Acinetobacter baumannii, DSM30007, cation-adjusted MHB) was 3 µM (≈ 0.994 µg/mL). For the same molecule, the “MIC A. baumannii DSM 30007 (-)” value ([2]; cation-adjusted MHB) was 1 µg/mL (≈ 3.02 µM), the MIC ([3]; Pseudomonas aeruginosa, PA01, cation-adjusted MHB) was 2 µM (≈ 0.663 µg/mL) and the “MIC P. aeruginosa PA01 (-)” value ([3]; cation-adjusted MHB) was 0.5 µg/mL (≈ 1.51 µM).
`CN[C@H](CC(C)C)C(=O)N[C@H]1C(=O)N[C@@H](CC(N)=O)C(=O)N[C@H]2C(=O)N[C@H]3C(=O)N[C@H](C(=O)N[C@H](C(=O)O)c4cc(O)cc(O)c4-c4cc3ccc4O)[C@H](O)c3ccc(c(Cl)c3)Oc3cc2cc(c3O[C@@H]2O[C@H](CO)[C@@H](O)[C@H](O)[C@H]2O[C@H]2C[C@](C)(N)[C@H](O)[C@H](C)O2)Oc2ccc(cc2Cl)[C@H]1O` [Vancomycin hydrochloride, reference compound] was tested, and the “MIC S. aureus EMRSA-15 (+)” value [4, 7] was 2 µg/mL, the MIC ([4]; Staphylococcus aureus, EMRSA15, read-out: MIC S. aureus EMRSA-15 (+), μM in brackets) was 1 µM and the “MIC S. aureus RN4220 (+)” value [6, 9] was 1 µg/mL. The MIC ([6]; Staphylococcus aureus, RN4220, read-out: MIC S. aureus RN4220 (+), μM in brackets) was 0.7 µM, the MIC ([5]; Enterococcus faecalis, JH22, read-out: MIC E. faecalis JH2-2 (+), μM in brackets) was 1 µM and the “MIC E. faecalis JH2-2 (+)” value [5, 8] was 2 µg/mL.
With “QWWGGRGGGRWRGGWRGGWRGRGRGWW [nAMP-LP-104]” the “MIC S. aureus EMRSA-15 (+)” value ([4]; EMRSA-15) was 256 µg/mL, the “MIC S. aureus RN4220 (+)” value [6, 9] was 256 µg/mL and the “MIC E. faecalis JH2-2 (+)” value ([5]; JH2-2) was 256 µg/mL.
